“And” between values parts separate entries of the source, which are not always exact repeats. Identical values can stand only once.

The assay deals with OVCAR-5 complex spheroids, viability. Briefly: Anticancer human tumor OVCAR-5 cell line growth inhibition.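 On all read-outs here: spheroids exposed to agents for seven days.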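 On viability, T/C: 100% = DMSO vehicle control wells viability.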 The conditions noted are these: for viability, T/C: stronger effect = lower value. In short, it runs like this:
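Complex spheroids of tumor cells with HUVEC and human MSCs, exposed to iadademstat combined with other agents. Each agent tested in half-log steps from near clinical Cmax (else 10 microM top), DMSO ≤0.25%.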

The mark [1] stands for this setting: curve of first compound, second compound 0.1 µM.
[2] abbreviates: curve of first compound, second compound 0.316 µM.
Where [3] appears, read: curve of first compound, second compound 1 µM.
[4] abbreviates: curve of first compound, second compound 3.16 µM.
The mark [5] stands for this setting: curve of first compound, second compound 10 µM.
[6] abbreviates: second compound 0.1 µM, first compound 0.00949 µM.
Where [7] appears, read: second compound 0.1 µM, first compound 0.03 µM.
Setting [8] is: second compound 0.1 µM, first compound 0.0949 µM.
The mark [9] stands for this setting: second compound 0.1 µM, first compound 0.3 µM.
The mark [10] stands for this setting: second compound 0.316 µM, first compound 0.00949 µM.
The mark [11] stands for this setting: second compound 0.316 µM, first compound 0.03 µM.
Setting [12] is: second compound 0.316 µM, first compound 0.0949 µM.
Where [13] appears, read: second compound 0.316 µM, first compound 0.3 µM.
Setting [14] is: second compound 1 µM, first compound 0.00949 µM.
Where [15] appears, read: second compound 1 µM, first compound 0.03 µM.
Where [16] appears, read: second compound 1 µM, first compound 0.0949 µM.
Where [17] appears, read: second compound 1 µM, first compound 0.3 µM.
[18] abbreviates: second compound 3.16 µM, first compound 0.00949 µM.
The mark [19] stands for this setting: second compound 3.16 µM, first compound 0.03 µM.
[20] abbreviates: second compound 3.16 µM, first compound 0.0949 µM.
Setting [21] is: second compound 3.16 µM, first compound 0.3 µM.
[22] abbreviates: second compound 10 µM, first compound 0.00949 µM.
Setting [23] is: second compound 10 µM, first compound 0.03 µM.
Where [24] appears, read: second compound 10 µM, first compound 0.0949 µM.
The mark [25] stands for this setting: second compound 10 µM, first compound 0.3 µM.

One may read the IC50 as the concentration at which inhibition is half-maximal. In general, viability, T/C refers to the ratio of treated to control. In the case of `O=C(C=Cc1cccc(S(=O)(=O)Nc2ccccc2)c1)NO` + NC1CC1c1ccc(-c2cccc(O)c2)cc1, the IC50 is, setting by setting: under setting [1], 118 nM; under setting [2], 124 nM; under setting [3], 81.9 nM; under setting [4], 74 nM; under setting [5], 78 nM. Besides, the viability, T/C was 90.3% under setting [6]; 78.2% under setting [7]; 54.6% under setting [8]; 28.7% under setting [9]; 11.8% (second compound 0.1 µM, first compound 0.949 µM); 2.54% (second compound 0.1 µM, first compound 3 µM). The viability, T/C under setting [10] is 89.4%; the viability, T/C under setting [11] was 82.5%; the viability, T/C under setting [12] is 55.3%; the viability, T/C under setting [13] was 27.7%; the viability, T/C (second compound 0.316 µM, first compound 0.949 µM) is 13.8%; the viability, T/C (second compound 0.316 µM, first compound 3 µM) is 2.81%. For the same compound, the viability, T/C by setting is: under setting [14], 82.7%; under setting [15], 69.6%; under setting [16], 46.5%; under setting [17], 25.3%; (second compound 1 µM, first compound 0.949 µM) 9.19%; (second compound 1 µM, first compound 3 µM) 2.22%. Besides, the viability, T/C runs as follows: under setting [18], 82.9%; under setting [19], 67.5%; under setting [20], 44.3%; under setting [21], 25.9%; (second compound 3.16 µM, first compound 0.949 µM) 10.2%; (second compound 3.16 µM, first compound 3 µM) 2.06%. Moreover, the viability, T/C is 87.9% under setting [22]; 73.9% under setting [23]; 40.2% under setting [24]; 28.6% under setting [25]; 11.8% (second compound 10 µM, first compound 0.949 µM); 2.64% (second compound 10 µM, first compound 3 µM).
Consider `COc1cc(C2c3cc4c(cc3C(OC3OC5COC(C)OC5C(O)C3O)C3COC(=O)C23)OCO4)cc(OC)c1O` (centres undefined), for which the viability, T/C is 108% and 107% (compound 0.00949 µM); 110% and 94.7% (compound 0.03 µM); 101% and 84.4% (compound 0.0949 µM); 69.6% and 60.9% (compound 0.3 µM); 44% and 35.2% (compound 0.949 µM); 39% and 33.6% (compound 3 µM). Further, for the setting “curve of compound”, the IC50 was 718 nM and 501 nM.
Regarding `O=C(C=Cc1cccc(S(=O)(=O)Nc2ccccc2)c1)NO`, the viability, T/C (compound 0.00949 µM) is 89.1% and 94.7%; the viability, T/C (compound 0.03 µM) was 88.7% and 80.5%; the viability, T/C (compound 0.0949 µM) is 61.9% and 55.5%; the viability, T/C (compound 0.3 µM) is 31.6% and 27.4%; the viability, T/C (compound 0.949 µM) is 15.4% and 10.4%; the viability, T/C (compound 3 µM) was 4.04% and 2.72%. Besides, under “curve of compound”, the IC50 was 156 nM and 118 nM.
For the compound `CCc1c2c(nc3ccc(O)cc13)-c1cc3c(c(=O)n1C2)COC(=O)[C@]3(O)CC` + NC1CC1c1ccc(-c2cccc(O)c2)cc1, the IC50 was less than 0.949 nM under setting [1]; less than 0.949 nM under setting [2]; less than 0.949 nM under setting [3]; less than 0.949 nM under setting [4]; less than 0.949 nM under setting [5]. For the same compound, the viability, T/C is 33% (second compound 0.1 µM, first compound 0.000949 µM); 17.4% (second compound 0.1 µM, first compound 0.003 µM); 7.17% under setting [6]; 2.96% under setting [7]; 0.9% under setting [8]; 0.46% under setting [9]. In addition, the viability, T/C runs as follows: (second compound 0.316 µM, first compound 0.000949 µM) 31.7%; (second compound 0.316 µM, first compound 0.003 µM) 18.4%; under setting [10], 7.68%; under setting [11], 2.91%; under setting [12], 0.78%; under setting [13], 0.44%. Further, the viability, T/C runs as follows: (second compound 1 µM, first compound 0.000949 µM) 31.3%; (second compound 1 µM, first compound 0.003 µM) 18%; under setting [14], 7.01%; under setting [15], 3.01%; under setting [16], 0.61%; under setting [17], 0.46%. The viability, T/C is, setting by setting: (second compound 3.16 µM, first compound 0.000949 µM) 32.2%; (second compound 3.16 µM, first compound 0.003 µM) 18.7%; under setting [18], 8.72%; under setting [19], 4.14%; under setting [20], 0.87%; under setting [21], 0.58%. In addition, the viability, T/C was 34% (second compound 10 µM, first compound 0.000949 µM); 19.9% (second compound 10 µM, first compound 0.003 µM); 8.18% under setting [22]; 4.37% under setting [23]; 0.68% under setting [24]; 0.41% under setting [25].
As to `O=C(C=Cn1cnc(-c2cc(C(F)(F)F)cc(C(F)(F)F)c2)n1)NNc1cnccn1` + NC1CC1c1ccc(-c2cccc(O)c2)cc1, the IC50 runs as follows: under setting [1], 55.6 nM; under setting [2], 50.5 nM; under setting [3], 39.1 nM; under setting [4], 23 nM; under setting [5], 19.8 nM. Moreover, the viability, T/C (second compound 0.1 µM, first compound 0.00316 µM) is 88.9%; the viability, T/C (second compound 0.1 µM, first compound 0.01 µM) was 73.9%; the viability, T/C (second compound 0.1 µM, first compound 0.0316 µM) was 57.2%; the viability, T/C (second compound 0.1 µM, first compound 0.1 µM) was 42.1%; the viability, T/C (second compound 0.1 µM, first compound 0.316 µM) is 38%; the viability, T/C (second compound 0.1 µM, first compound 1 µM) was 33.9%. Further, the viability, T/C (second compound 0.316 µM, first compound 0.00316 µM) is 87.8%; the viability, T/C (second compound 0.316 µM, first compound 0.01 µM) is 72%; the viability, T/C (second compound 0.316 µM, first compound 0.0316 µM) is 54.9%; the viability, T/C (second compound 0.316 µM, first compound 0.1 µM) is 42.2%; the viability, T/C (second compound 0.316 µM, first compound 0.316 µM) was 39.1%; the viability, T/C (second compound 0.316 µM, first compound 1 µM) was 34.4%. Besides, the viability, T/C by setting is: (second compound 1 µM, first compound 0.00316 µM) 84%; (second compound 1 µM, first compound 0.01 µM) 65.9%; (second compound 1 µM, first compound 0.0316 µM) 53.8%; (second compound 1 µM, first compound 0.1 µM) 39.4%; (second compound 1 µM, first compound 0.316 µM) 36.2%; (second compound 1 µM, first compound 1 µM) 31.7%. For the same compound, the viability, T/C (second compound 3.16 µM, first compound 0.00316 µM) is 81.7%; the viability, T/C (second compound 3.16 µM, first compound 0.01 µM) was 62.9%; the viability, T/C (second compound 3.16 µM, first compound 0.0316 µM) was 43.1%; the viability, T/C (second compound 3.16 µM, first compound 0.1 µM) is 38.5%; the viability, T/C (second compound 3.16 µM, first compound 0.316 µM) was 34.7%; the viability, T/C (second compound 3.16 µM, first compound 1 µM) was 29.7%. For the same compound, the viability, T/C reads like this: (second compound 10 µM, first compound 0.00316 µM) 79%; (second compound 10 µM, first compound 0.01 µM) 60.8%; (second compound 10 µM, first compound 0.0316 µM) 42.6%; (second compound 10 µM, first compound 0.1 µM) 36.6%; (second compound 10 µM, first compound 0.316 µM) 33.6%; (second compound 10 µM, first compound 1 µM) 35.2%.
